From patent US20250235456A1, “METHODS OF USE FOR AZA-QUINAZOLINE COMPOUNDS” (Iambic Therapeutics, Inc., priority 2024, published 2025)

Legend:
Type in all cases: biochemical
CDK6/Cyclin D3 = CDK6/Cyclin D3 (Homo sapiens (Human), UniProt Q00534); test: CDK6/Cyclin D3 ADP-Glo Kinase Assay; settings: read-out: CDK6/CyclinD3 IC50
In short: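 Commercial CDK6/Cyclin D3 pre-incubated with inhibitor 30 min at room temperature, then reaction started with ATP/substrate and run 90 min at room temperature. ADP formed measured by ADP-Glo luminescence; IC50 from fractional velocity vs inhibitor concentration fit to a 4-parameter equation.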

CDK4/Cyclin D1 [1] = target: T1, CDK4/Cyclin D1 (Homo sapiens (Human), UniProt P11802); test: CDK4/Cyclin D1 Mobility Shift Assay (MSA); settings: read-out: CDK4/CyclinD1 MSA IC50
T1 sequence (P11802 whole entry, species assumed): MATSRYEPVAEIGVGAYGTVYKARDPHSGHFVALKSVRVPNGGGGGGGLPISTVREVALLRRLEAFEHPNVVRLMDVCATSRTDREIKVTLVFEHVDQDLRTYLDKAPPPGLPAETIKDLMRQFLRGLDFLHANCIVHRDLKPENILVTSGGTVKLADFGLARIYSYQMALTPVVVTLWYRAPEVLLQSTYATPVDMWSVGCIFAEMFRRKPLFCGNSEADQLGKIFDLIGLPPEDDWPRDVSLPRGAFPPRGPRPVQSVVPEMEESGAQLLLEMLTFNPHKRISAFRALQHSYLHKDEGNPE
T1 sequence (P24385 whole entry partner, species assumed): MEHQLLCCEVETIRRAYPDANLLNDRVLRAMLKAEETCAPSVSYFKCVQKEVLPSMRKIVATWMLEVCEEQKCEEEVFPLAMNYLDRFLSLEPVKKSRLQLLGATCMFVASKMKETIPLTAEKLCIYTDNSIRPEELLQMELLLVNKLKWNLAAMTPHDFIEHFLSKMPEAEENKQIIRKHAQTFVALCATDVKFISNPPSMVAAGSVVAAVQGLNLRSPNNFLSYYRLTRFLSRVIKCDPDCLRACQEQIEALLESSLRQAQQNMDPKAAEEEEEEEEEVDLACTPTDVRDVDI
Source text: CDK4/Cyclin D1 Mobility Shift Assay (MSA) The purpose CDK4/Cyclin D1 assay is to evaluate the inhibition (% inhibition and IC50 values) in the presence of small molecule inhibitors by using a fluorescence based microfluidic mobility shift assay. CDK4/Cyclin D1 catalyzes the production of ADP from ATP that accompanies the phosphoryl transfer to the substrate peptide 5-FAM-Dyrktide (5-FAM-[…]) (Perkin Elmer Peptide 34). The mobility shift assay (MSA) electrophoretically separates the fluorescently labelled peptides (substrate and phosphorylated product) following the kinase reaction. Both substrate and product are measured, and the ratio of these values is used to generate % conversion of substrate to product by the LabChip EZ Reader. Typical reaction solutions contained 2% DMSO (+/−inhibitor), 10 mM MgCl2, 1 mM EGTA, 0.05% BSA, 2 mM DTT, 0.2 mM ATP, 0.01% Brig-35, 1.5 uM 5-FAM-Dyrktide, 2.5 nM CDK4/Cyclin D1 in 50 mM HEPES buffer at pH 7.5. The reaction was initiated with the addition of substrate solution, following a 30-minute pre-incubation of enzyme and inhibitor at 22° C. in the reaction mix. The reaction was stopped after 180 minutes by the addition of 75 μL of 500 mM EDTA and measured on a Perkin Elmer EZ reader instrument. IC50 determinations were made from a plot of the fractional velocity as a function of inhibitor concentration fit to the 4 parameters IC50 equation.

CDK1/Cyclin B1 = CDK1/Cyclin B1 (Homo sapiens (Human), UniProt P06493); test: CDK1/Cyclin B1 ADP-Glo Kinase Assay
Chain of CDK1/Cyclin B1 (P06493 whole entry): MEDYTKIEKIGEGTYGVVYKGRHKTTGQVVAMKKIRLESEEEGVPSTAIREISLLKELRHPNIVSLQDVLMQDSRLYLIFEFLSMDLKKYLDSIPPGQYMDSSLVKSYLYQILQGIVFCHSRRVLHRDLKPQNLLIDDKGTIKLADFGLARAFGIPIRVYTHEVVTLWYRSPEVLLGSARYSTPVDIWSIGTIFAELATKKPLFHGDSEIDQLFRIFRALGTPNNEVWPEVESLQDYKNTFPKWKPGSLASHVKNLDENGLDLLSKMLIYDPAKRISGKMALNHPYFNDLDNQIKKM
Chain of CDK1/Cyclin B1 (P14635 whole entry partner): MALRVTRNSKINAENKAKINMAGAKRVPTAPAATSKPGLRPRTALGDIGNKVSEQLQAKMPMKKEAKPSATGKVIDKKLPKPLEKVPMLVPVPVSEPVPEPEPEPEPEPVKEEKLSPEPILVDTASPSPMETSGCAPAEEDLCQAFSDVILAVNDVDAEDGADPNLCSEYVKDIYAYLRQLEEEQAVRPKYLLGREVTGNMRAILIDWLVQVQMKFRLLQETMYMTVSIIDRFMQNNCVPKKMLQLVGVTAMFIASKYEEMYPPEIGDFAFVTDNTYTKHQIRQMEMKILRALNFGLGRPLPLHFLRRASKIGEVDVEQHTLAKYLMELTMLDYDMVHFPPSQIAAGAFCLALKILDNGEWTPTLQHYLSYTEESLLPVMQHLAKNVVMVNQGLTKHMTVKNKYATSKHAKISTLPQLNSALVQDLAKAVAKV
In short: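 Purchased CDK1/Cyclin B1 was pre-incubated 30 min with inhibitor at room temperature, then reacted 90 min at room temperature after adding ATP-containing substrate. ADP formed was read by two-step ADP-Glo luminescence. IC50 came from a 4-parameter fit of fractional velocity versus inhibitor concentration.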

[2] = target: CDK2/Cyclin E1 full length (Homo sapiens (Human), UniProt P24941); test: CDK2/Cyclin E1 Full length ADP-Glo Kinase Assay; settings: read-out: CDK2/CyclinE1 IC50
Protocol: CDK2/Cyclin E1 Full length ADP-Glo Kinase Assay
The purpose of CDK2/Cyclin El assay is to evaluate the inhibition (% inhibition and IC50 values) of small molecule inhibitors by using a Luminescent based ADP-Glo assay. CDK2/Cyclin El full length catalyzes the production of ADP from ATP. ADP-Glo assay monitors ADP producing biochemical reactions. ADP-Glo is performed in 2 steps upon completion of kinase reaction: a combined termination of kinase reaction and depletion of remaining ATP in the first step, and conversion of generated ADP to ATP and the newly produced ATP to light output using luciferase/luciferin reaction in the second step. The luminescent signal generated is proportional to the ADP concentration produced and is correlated with the kinase activity. CDK2/Cyclin E1 was purchased from Eurofins (Cat 14-475M). […] The assay was initiated with the addition of ATP-containing substrate solution, following a 30-minute pre-incubation of enzyme and inhibitor at room temperature in the reaction mixture. The reaction was stopped after 90 minutes at room temperature by the addition of 10 μL of ADP-GLO Reagent. After a 90 minute incubation, 20 uL of Kinase Detection Reagent was added. Samples were incubated for 40 minutes, after which plate well luminescence was measured on a Envision microplate reader. The IC50 determinations were made from a plot of the fractional velocity as a function of inhibitor concentration fit to the 4 parameters IC50 equation.

CDK4/Cyclin D1 [3] = target: T1, CDK4/Cyclin D1; test: CDK4/Cyclin D1 CHEF Assay; settings: AQT; read-out: CDK4/CyclinD1 AQT IC50
In short: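 Peptide substrate AQT0258 carries a Sox fluorophore whose Mg(II)-dependent fluorescence (ex 360/em 485 nm) rises on phosphorylation. Enzyme and inhibitor pre-incubated 30 min at 22 °C, substrate added, reaction run 3 h at 22 °C. IC50 from 4-parameter fit of fractional velocity vs inhibitor concentration.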

Chain of CDK6/Cyclin D3 (Q00534 whole entry): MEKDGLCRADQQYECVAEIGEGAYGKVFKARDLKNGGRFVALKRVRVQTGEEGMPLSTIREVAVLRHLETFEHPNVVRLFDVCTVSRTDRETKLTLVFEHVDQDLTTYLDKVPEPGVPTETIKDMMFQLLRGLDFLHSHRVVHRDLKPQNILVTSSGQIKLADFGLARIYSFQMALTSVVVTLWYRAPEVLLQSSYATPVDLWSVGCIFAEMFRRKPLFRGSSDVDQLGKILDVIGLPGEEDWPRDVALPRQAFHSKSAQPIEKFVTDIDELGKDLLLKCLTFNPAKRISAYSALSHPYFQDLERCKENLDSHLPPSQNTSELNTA
Chain of CDK6/Cyclin D3 (P30281 whole entry partner): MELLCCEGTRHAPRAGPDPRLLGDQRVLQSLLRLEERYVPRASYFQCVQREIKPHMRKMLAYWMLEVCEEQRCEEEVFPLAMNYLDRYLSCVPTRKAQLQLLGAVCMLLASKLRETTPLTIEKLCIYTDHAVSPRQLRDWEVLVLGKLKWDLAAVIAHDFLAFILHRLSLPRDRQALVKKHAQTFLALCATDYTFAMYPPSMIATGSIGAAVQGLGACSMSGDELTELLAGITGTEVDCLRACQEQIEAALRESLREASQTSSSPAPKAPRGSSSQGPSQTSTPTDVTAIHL

| IC50 (CDK6/Cyclin D3) | IC50 (CDK4/Cyclin D1 [1]) | IC50 (CDK1/Cyclin B1) | IC50 [2] | IC50 (CDK4/Cyclin D1 [3]) | SMILES |
| --- | --- | --- | --- | --- | --- |
| 0.2 to 0.5 µM | < 0.2 µM | – | – | – | CS(=O)(=O)N1CCC(Nc2ncc3ccnc(N4CCN(C5CC5)CC4)c3n2)CC1 [Compound 1, 8-(4-cyclopropylpiperazin-1-yl)-N-(1-(methylsulfonyl)piperidin-4-yl)pyrido[3,4-d]pyrimidin-2-amine] |
| < 0.2 µM | < 0.2 µM | 0.2 to 0.5 µM | – | – | CN1CCN(c2ccc(Nc3ncc4ccnc(N5CCC6(C5)CC(F)(F)C6)c4n3)cc2)CC1 [Compound 4, 8-(2,2-difluoro-6-azaspiro[3.4]octan-6-yl)-N-(4-(4-methylpiperazin-1-yl)phenyl)pyrido [3,4-d]pyrimidin-2-amine] |
| 0.2 to 0.5 µM | < 0.2 µM | – | 0.2 to 0.5 µM | – | CN1C[C@@H]2[C@H](C1)[C@H]2Nc1ncc2ccnc(N3CCC4(C3)CC4(F)F)c2n1 (stereo partly drawn) [Compound 17, 8-(1,1-difluoro-5-azaspiro[2.4]heptan-5-yl)-N-((1R,5S,6s)-3-methyl-3-azabicyclo[3.1.0]hexan-6-yl) pyrido[3,4-d]pyrimidin-2-amine] |
| > 2 µM | – | > 2 µM | 0.2 to 0.5 µM | > 2 µM | Cc1cc2cnc(Nc3cc4c(cc3F)CN(S(C)(=O)=O)C4)nc2c(N2CC3(CNC3)C2)n1 [Compound 37, N-(6-fluoro-2-(methylsulfonyl)isoindolin-5-yl)-6-methyl-8-(2,6-diazaspiro[3.3]heptan-2-yl) pyrido[3,4-d]pyrimidin-2-amine] |
| < 0.2 µM | – | > 2 µM | 0.2 to 0.5 µM | < 0.2 µM | Cc1cc2cnc(Nc3ccc(N4CC5(CN(C)C5)C4)cc3)nc2c(N2CCC3(CCOCC3)C2)n1 [Compound 35, 6-methyl-N-(4-(6-methyl-2,6-diazaspiro[3.3]heptan-2-yl)phenyl)-8-(8-oxa-2-azaspiro[4.5]decan-2-yl)pyrido[3,4-d]pyrimidin-2-amine] |
| < 0.2 µM | < 0.2 µM | < 0.2 µM | – | – | CS(=O)(=O)N1CCC(Nc2ncc3ccnc(N4CCC5(C4)CC(F)(F)C5)c3n2)CC1 [Example 2, 8-(2,2-difluoro-6-azaspiro[3.4]octan-6-yl)-N-(1-(methylsulfonyl)piperidin-4-yl)pyrido[3,4-d]pyrimidin-2-amine] |
| < 0.2 µM | < 0.2 µM | < 0.2 µM | – | – | CS(=O)(=O)N1CCC(Nc2ncc3ccnc(N4CCC5(C4)CC5(F)F)c3n2)CC1 (centres unmarked) [Compound 3, 8-(1,1-difluoro-5-azaspiro[2.4]heptan-5-yl)-N-(1-(methylsulfonyl)piperidin-4-yl)pyrido[3,4-d]pyrimidin-2-amine] |
| < 0.2 µM | < 0.2 µM | > 2 µM | – | – | CN1CCn2nc(Nc3ncc4ccnc(N5CCC6(C5)CC6(F)F)c4n3)cc2C1 (centres unmarked) [Compound 10, 8-(1,1-difluoro-5-azaspiro[2.4]heptan-5-yl)-N-(5-methyl-4,5,6,7-tetrahydropyrazolo [1,5-a]pyrazin-2-yl)pyrido[3,4-d]pyrimidin-2-amine] |
| < 0.2 µM | < 0.2 µM | 0.2 to 0.5 µM | – | – | CS(=O)(=O)N1CC(Nc2ncc3ccnc(N4CCC5(C4)CC5(F)F)c3n2)C1 (centres unmarked) [Compound 14, 8-(1,1-difluoro-5-azaspiro[2.4]heptan-5-yl)-N-(1-(methylsulfonyl)azetidin-3-yl) pyrido[3,4-d]pyrimidin-2-amine] |
| < 0.2 µM | < 0.2 µM | 0.2 to 0.5 µM | – | – | CS(=O)(=O)N1CCC(Nc2ncc3ccnc(N4CCC5(CCOCC5)C4)c3n2)CC1 [Compound 7, N-(1-(methylsulfonyl)piperidin-4-yl)-8-(8-oxa-2-azaspiro[4.5]decan-2-yl)pyrido[3,4-d]pyrimidin-2-amine] |
| < 0.2 µM | < 0.2 µM | – | – | – | CN1CCC(n2cc(Nc3ncc4ccnc(N5CCC6(C5)CC6(F)F)c4n3)cn2)CC1 (centres unmarked) [Compound 20, 8-(1,1-difluoro-5-azaspiro[2.4]heptan-5-yl)-N-(1-(1-methylpiperidin-4-yl)-1H-pyrazol-4-yl)pyrido[3,4-d]pyrimidin-2-amine] |
| 0.2 to 0.5 µM | – | > 2 µM | 0.2 to 0.5 µM | 0.2 to 0.5 µM | Cc1cc2cnc(Nc3ccc(N4CC5(CN(C)C5)C4)cc3)nc2c(N2CC3(C2)CS(=O)(=O)C3)n1 [Compound 30, 6-(6-methyl-2-((4-(6-methyl-2,6-diazaspiro[3.3]heptan-2-yl)phenyl)amino)pyrido[3,4-d]pyrimidin-8-yl)-2-thia-6-azaspiro[3.3]heptane 2,2-dioxide] |
| < 0.2 µM | < 0.2 µM | < 0.2 µM | – | – | CS(=O)(=O)N1CCC(Nc2ncc3ccnc(N4CCC(C#N)(C5CC5)C4)c3n2)CC1 (centres unmarked) [Compound 5, 3-cyclopropyl-1-(2-((1-(methylsulfonyl)piperidin-4-yl)amino)pyrido[3,4-d]pyrimidin-8-yl)pyrrolidine-3-carbonitrile] |
| < 0.2 µM | – | < 0.2 µM | < 0.2 µM | < 0.2 µM | O=S(=O)(C1CC1)N1CCC(Nc2ncc3cc(C(F)F)nc(N4CC5(CCNC5)C4)c3n2)CC1 [Compound 46, 1-(cyclopropanesulfonyl)-N-(8-{2,6-diazaspiro[3.4]octan-2-yl}-6-(difluoromethyl)pyrido[3,4-d]pyrimidin-2-yl)piperidin-4-amine] |
| – | < 0.2 µM | 0.2 to 0.5 µM | – | – | CS(=O)(=O)N1CCC(Nc2ncc3ccnc(N4CC5(C4)CN(C4CC4)C5)c3n2)CC1 [Compound 8, 8-(6-cyclopropyl-2,6-diazaspiro[3.3]heptan-2-yl)-N-(1-(methylsulfonyl)piperidin-4-yl)pyrido[3,4-d]pyrimidin-2-amine] |
| 0.2 to 0.5 µM | – | 0.5 to 2 µM | < 0.2 µM | < 0.2 µM | Cc1cc2cnc(NC3CCN(S(C)(=O)=O)CC3)nc2c(N2CC3(CN(C)C[C@H]3F)C2)n1 [Compound 104, (S)-8-(8-fluoro-6-methyl-2,6-diazaspiro[3.4]octan-2-yl)-6-methyl-N-(1-(methylsulfonyl)piperidin-4-yl)pyrido[3,4-d]pyrimidin-2-amine] |
| – | < 0.2 µM | 0.2 to 0.5 µM | – | – | CN1CCN(c2ccc(Nc3ncc4ccnc(N5CCC6(CCN(S(C)(=O)=O)C6)C5)c4n3)cc2)CC1 (centres unmarked) [Compound 9, N-(4-(4-methylpiperazin-1-yl)phenyl)-8-(7-(methylsulfonyl)-2,7-diazaspiro[4.4]nonan-2-yl) pyrido[3,4-d]pyrimidin-2-amine] |
| < 0.2 µM | – | 0.5 to 2 µM | < 0.2 µM | < 0.2 µM | Cc1cc2cnc(NC3CCN(S(C)(=O)=O)CC3)nc2c(N2CC3(CN(C)C[C@@H]3F)C2)n1 [Compound 103, (R)-8-(8-fluoro-6-methyl-2,6-diazaspiro[3.4]octan-2-yl)-6-methyl-N-(1-(methylsulfonyl)piperidin-4-yl)pyrido[3,4-d]pyrimidin-2-amine] |

| SMILES | IC50 (CDK6/Cyclin D3) | IC50 (CDK4/Cyclin D1 [1]) | IC50 (CDK1/Cyclin B1) | IC50 [2] | IC50 (CDK4/Cyclin D1 [3]) |
| --- | --- | --- | --- | --- | --- |
| CCN1CC2(C1)CN(c1ccc(Nc3ncc4ccnc(N5CCC6(C5)CC(F)(F)C6)c4n3)nc1)C2 [Example 6, 8-(2,2-difluoro-6-azaspiro[3.4]octan-6-yl)-N-(5-(6-ethyl-2,6-diazaspiro[3.3]heptan-2-yl)pyridin-2-yl)pyrido[3,4-d]pyrimidin-2-amine] | < 0.2 µM | < 0.2 µM | > 2 µM | – | – |
